Results reported in patent US11400137B2, “Rectal insulin for treatment of inflammatory bowel diseases” (University of Copenhagen, priority 2016, dated 2022).
Entries after “also recorded” stand apart in the source; their conditions may differ. Where two headings read alike, the source gives them in different places.

Assays:
[1] = tested on: mice with DSS induced colitis (AOM+DSS); experiment: AOM+DSS colitis/carcinogenesis model, rectal insulin intervention study (2% DSS); type: in vivo, mouse
Excerpt: In the azoxymethane and dextran sulphate sodium (AOM/DSS) carcinogenesis/colitis model, colitis is induced by DSS which promotes AOM induced tumours. This AOM/DSS model was used on mice having intestinal specific inactivation of the insulin receptor. These mice were obtained by crossing mice (B6.129S4(FVB)-Insrtm1Khn/J) with loxP sites flanking exon 4 in the insulin receptor gene with mice (B6.Cg-Tg(Vil-cre)997Gum/J) expressing the cre-recombinase under the villin promoter (both mice were obtained commercially from the Jackson Laboratory).
The discovery that inactivated insulin signalling in the intestine augments inflammation and stimulates development of inflammation induced tumours, prompted us to the invention that insulin might be used to treat colitis. This was investigated in an intervention study. Thus, wild type mice were set up in the AOM+DSS regime and divided into two groups. One group of mice was treated with rectal administration of insulin while the control group was treated with vehicle (phosphate buffered saline; PBS).
(§1) The insulin treatment regime was as follows: Each day during DSS treatment and the following first 4 days during remission (no DSS treatment) the mice were anaesthetized with isoflurane and 600 μl PBS or PBS+0.06 units human insulin was injected intra rectally. For the injection, a syringe fitted with a flexible silicone feeding needle (for rodents) was used. The mice were placed on their back with the lower end elevated for 10 minutes while still in isoflurane anaesthesia. After recovery from anaesthesia the mice were returned to their cages. The mice were weighed daily and signs of rectal bleeding scored.

[2] = tested on: mice with DSS induced colitis (AOM+DSS); experiment: AOM+DSS + rectal insulin dose-response experiment (3% DSS); type: in vivo, mouse
Description: as §1
In this experiment 3% DSS was used as opposed to 2% DSS in the previous experiment (FIG. 3). During induction of inflammation there is a significant (FIG. 6, t-test, p<0.05) effect of the administration of 6 u/kg insulin whereas there is no effect of only 2 u/kg administration. Specifically the weight loss (weight at the end of DSS treatment−the weight at the beginning of the DSS treatment) is 16% less in the 6 u/kg insulin group compared to the PBS group (4.3 g in the PBS group versus 3.6 g in the 6 u/kg insulin group; see FIG. 5.

insulin receptor mRNA = experiment: Colonic crypts cultured as organoids with and without insulin; type: cell-based; settings: insulin added to organoid medium vs none (FIG. 8)
Description: To investigate the effect of insulin on isolated colonic epithelial cells, colonic crypts were cultured as organoids with and without the addition of insulin to the medium. […] Several mechanisms are possible. First it is possible that insulin induces differentiation of the epithelial cells and that this process increases […]. Alternatively the insulin receptor may directly stimulate its own mRNA expression by yet undescribed mechanisms. The finding is important because the positive feedback loop is expected to prolong the duration of the insulin effect on the colonic mucosa.

COX2 mRNA = COX2 mRNA expression in colons of mice with AOM+DSS induced inflammation; type: in vivo, mouse
Excerpt: Cyclooxygenase 2 (COX2/PTGS2) catalyzes the first step in the synthesis of the inflammatory mediators, the prostaglandins, from arachidonic acid. The expression of COX2 is increased in the colonic epithelial cells from patients with active colonic CD and UC and is therefore a biomarker for colonic inflammation in IBD.

[3] = Description: C57BL6 mice were treated with 3% DSS in their drinking water. At the peak of inflammation, the mice were treated with rectal insulin and the blood glucose concentration measured at 0, 15, 30, 60, 90, 120 and 240 minutes. Anaesthesia was induced after the first measurement was taken at time point zero. Anaesthesia was complete at time point 15 minutes and rectal insulin instillation or PBS control instillation also begun at time point 15 minutes.
Car3 mRNA = Car3 mRNA expression in colons during AOM+DSS induced intestinal inflammation; type: in vivo, mouse
Excerpt: On the contrary, in the INSR KO mice with inactivated insulin receptor in the intestinal epithelial cells the expression of Car3 was not increased by inflammation. Therefore it was investigated whether Car3 is a target for intestinal insulin signalling. The methodology described in Example 2 was followed.

colonic epithelial cells = tested on: colonic epithelial cells
Excerpt: Sections of mouse colons from INSR KO mice and INSR Flox mice were stained with an antibody against the proliferation marker Ki67. Thereafter, sections of inflamed (DSS induced) colons obtained from C57BL6 mice treated with either PBS, 2 u or 6 units/kg insulin were also stained with an antibody directed against the Ki67 proliferation marker and the number of KI67 positive cells per crypt counted.

[4] = 6 u/kg insulin, p<0.05 vs PBS, Fischer's exact test

insulin
weight loss from DSS start (day 1) to beginning of remission (day 8) ([1]; 2% DSS, 0.06 units human insulin in 600 μl PBS intra rectally daily, PBS group 2.56 g, t-test p<0.05): 1.68 g | mice with tumours with a size greater than 2 mm ([1]; PBS group 1.3 >2 mm tumours per mouse, p<0.05): 0 mice | mice showing signs of rectal bleeding during treatment ([1]; all PBS mice showed bleeding, p<0.05): two | inflammation score by colonoscopy, late remission phase ([1]; blinded scoring of endoscopy videos, vs PBS): significant lower (and better) inflammation score; also recorded: improves inflammation score | body weight course (FIG. 3) ([1]; daily rectal recombinant human insulin 2 units/kg): re-gained weight | Rectal bleeding: No bleeding (number of mice) ([2]; 2 u/kg insulin, PBS group 4): 8 | Rectal bleeding: Bleeding (number of mice) ([2]; 2 u/kg insulin, PBS group 9): 3 | weight increase in remission phase, day 8 to day 11 ([2]; 3% DSS, 2 and 6 u/kg rectal insulin (FIG. 7)): dose-dependent increase in weight | effect on weight loss during induction of inflammation ([2]; 3% DSS, 2 u/kg rectal insulin): no effect | weight loss less than in the PBS group ([2]; 3% DSS, 6 u/kg rectal insulin): 16% | weight loss (weight at end of DSS treatment − weight at beginning) ([2]; 3% DSS, 6 u/kg rectal insulin, PBS group 4.3 g, p<0.05): 3.6 g | Rectal bleeding: Bleeding (number of mice) [2, 4]: 3 | Rectal bleeding: No bleeding (number of mice) [2, 4]: 12 | concentration of insulin receptor mRNA (insulin receptor mRNA): increased almost two-fold | COX2 mRNA expression in colon (COX2 mRNA; 2 u/kg rectal insulin): significantly reduce | COX2 mRNA expression in colon (COX2 mRNA; 6 u/kg rectal insulin): significantly reduce | blood glucose concentration vs PBS control ([3]; 3% DSS, peak of inflammation, 0-240 minutes, rectal insulin): No significant difference | systemic uptake of insulin following rectal instillation ([3]; inferred from blood glucose): negligible | Car3 mRNA expression in colon (Car3 mRNA; 2 u/kg rectal insulin): not | Car3 mRNA expression in colon (Car3 mRNA; 6 u/kg rectal insulin): significantly increased | Ki67 positive cells per crypt, staining pattern vs PBS (colonic epithelial cells; 2 u/kg rectal insulin): No significant difference | Ki67 positive cells per crypt, staining pattern vs PBS (colonic epithelial cells; 6 units/kg rectal insulin): No significant difference
